Experimental data reported in publication PMC10901892 (Scientific Reports, 2024).
Entries after “also recorded” stand apart in the source; their conditions may differ.

Legend:
[1] = test system: isolated mouse liver mitochondria; assay type: biochemical; settings: for EC50: read-out: EC50 of uncoupling activity
[2] = target: T1, mitochondrial electron transport chain (complex II) (Mus musculus, UniProt Q8K2B3+Q9CQA3+Q9CXV1+Q9CZB0); assay type: biochemical
T1 construct: Mouse liver mitochondria were isolated by homogenization and differential centrifugation; from tissue; host or cells: liver of male C57BL/6JINV (Jax) mice; isolated mitochondria, intact or disrupted by a freeze-thaw cycle
T1 sequence (Q8K2B3 43-664): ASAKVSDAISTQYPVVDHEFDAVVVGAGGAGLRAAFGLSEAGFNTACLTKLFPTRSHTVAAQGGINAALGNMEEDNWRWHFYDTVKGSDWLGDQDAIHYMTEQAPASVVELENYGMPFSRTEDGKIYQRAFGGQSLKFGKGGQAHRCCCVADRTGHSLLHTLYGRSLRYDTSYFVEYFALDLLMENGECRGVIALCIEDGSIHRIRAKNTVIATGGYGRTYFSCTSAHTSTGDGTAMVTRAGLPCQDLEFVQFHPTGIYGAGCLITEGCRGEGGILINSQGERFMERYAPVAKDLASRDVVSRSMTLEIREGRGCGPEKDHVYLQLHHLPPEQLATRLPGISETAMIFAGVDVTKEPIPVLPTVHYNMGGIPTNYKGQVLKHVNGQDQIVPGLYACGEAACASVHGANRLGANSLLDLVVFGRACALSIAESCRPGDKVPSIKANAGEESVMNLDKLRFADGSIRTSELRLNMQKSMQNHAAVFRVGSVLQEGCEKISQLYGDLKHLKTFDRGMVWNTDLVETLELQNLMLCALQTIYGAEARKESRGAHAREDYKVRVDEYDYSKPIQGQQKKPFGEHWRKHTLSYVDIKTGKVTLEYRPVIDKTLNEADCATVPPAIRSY
T1 sequence (Q9CQA3 31-282): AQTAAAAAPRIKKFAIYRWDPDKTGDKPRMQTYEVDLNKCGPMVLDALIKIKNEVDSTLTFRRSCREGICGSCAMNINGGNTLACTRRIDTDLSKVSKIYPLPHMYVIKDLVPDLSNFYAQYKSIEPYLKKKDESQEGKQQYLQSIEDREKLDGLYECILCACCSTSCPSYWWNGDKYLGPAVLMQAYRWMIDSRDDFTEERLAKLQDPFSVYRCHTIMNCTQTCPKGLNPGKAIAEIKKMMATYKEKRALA
T1 sequence (Q9CZB0 30-169): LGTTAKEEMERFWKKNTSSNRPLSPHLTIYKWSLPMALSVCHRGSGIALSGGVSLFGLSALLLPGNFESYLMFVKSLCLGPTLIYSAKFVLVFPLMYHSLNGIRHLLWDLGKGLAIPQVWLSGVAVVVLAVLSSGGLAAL
T1 sequence (Q9CXV1 57-159): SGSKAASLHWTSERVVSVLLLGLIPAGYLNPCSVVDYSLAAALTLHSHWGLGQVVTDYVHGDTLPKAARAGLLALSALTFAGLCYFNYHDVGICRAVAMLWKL

[3] = in vivo, 5 mg/kg
[4] = Stability in aqueous 100 mM KPO4 buffer with or without GSH
[5] = test system: rats; settings: cited from earlier work
[6] = In vitro metabolic stability with rat liver microsomes
[7] = NMY1009 plasma and tissue concentrations over time by LC/MS; assay type: in vivo; settings: mice, 5 mg/kg i.p.
Protocol: (§1) Figure 2 Determination of NMY1009 toxicity and plasma and tissue concentrations. (A) 7 treatment groups and 1 vehicle group (four mice per each group) were subjected to 7 daily administrations of the drug i.p. and well-being checks were carried out at 6 and 24 h after each treatment. No deaths or adverse reactions at any of the used NMY1009 doses were observed. (B, C) Tissue and plasma kinetics of NMY1009. Mice were injected with 5 mg/kg NMY1009 i.p. NMY1009 concentrations were measured by LC/MS.
To characterize the in vivo pharmacokinetics properties of NMY1009, we measured plasma and tissue concentrations over time after an i.p. injection of 5 mg/kg NMY1009. […] The kinetics of the tissue drug concentrations were similar compared to plasma. The observed decline in the adipose tissue concentrations may be due to drug metabolism or renal excretion. The latter possibility appears less likely as the drug concentration in the kidney was very low. […] However, the adipose tissue drug concentrations decreased over time with a half-life of approximately 3 h.
50 mg of tissue were extracted into 1000 μl of acetonitrile. The entire supernatant was dried and reconstituted into 200 μl of 1:1 acetonitrile/water.

[8] = test system: mice; test: NMY1009 in vivo toxicity study; settings: i.p. daily, 1 to 100 mg/kg, seven days
Protocol: as §1
7 treatment groups and 1 vehicle group (four mice per each group) were subjected to 7 daily administrations of the drug i.p. NMY1009 was dissolved in 100% DMSO and the injection volume was 30 μl. Well-being checks were carried out at 6 and 24 h after each treatment. The in vivo toxicity study was carried out by Altogen Labs (Austin, TX).

[9] = test system: mice on high fat diet; settings: mouse, in vivo, ip, 3 mg/kg
[10] = aqueous buffer, ESI mass spectrometry
[11] = aqueous solution without GSH, 37 °C

In the case of `O=[N+]([O-])c1ccc(O)c([N+](=O)[O-])c1` [2,4-dinitrophenol, reference compound], the “EC50, fold stimulation of oxygen consumption” value [1] is reported as 9600 nM and the “inhibitory effect on mitochondrial electron transport chain activity” value [2] is reported as “no inhibitory effect”.
In the case of `CCCCCCCCOc1cc([N+](=O)[O-])c(O)c([N+](=O)[O-])c1` [2,6-dinitro-4-(octyloxy)phenol], the “EC50, fold stimulation of oxygen consumption” value [1] is reported as 3700 nM, the “effect on mitochondrial oxygen consumption at very high concentrations” value [2] is reported as “inhibited mitochondrial oxygen consumption at very high concentrations” and the “effect on oxygen consumption with NADH as substrate” value [2] is reported as “minimal effect”. For the same compound, the “effect on succinate-dependent oxygen consumption after disruption of the inner membrane” value [2] was “inhibited succinate-dependent oxygen consumption”, the “plasma concentration kinetics (in words)” value ([3]; C57BL/6, mouse) was “decreased rapidly with much faster kinetics compared to 2,6-dinitrophenol” and the “drug tissue concentration, heart” value ([3]; mouse) was “BLQ”. For the same compound, the “drug tissue concentration, kidney” value ([3]; mouse) was “BLQ”, the “drug tissue concentration, liver” value ([3]; mouse) was “BLQ” and the “health of animals during the study” value ([3]; mouse) was “healthy throughout the study duration”. For the same compound, the “tissue concentrations (in words)” value ([3]; mouse, ip) was “very low”.
For `COc1ccc(NN=C(C#N)C#N)cc1` [C1-CCP], the “uncoupling activity (in words)” value [1] was “lower uncoupling activity compared to C4-CCP and C8-CCP”.
`CCCCOc1ccc(NN=C(C#N)C#N)cc1` [C4-CCP] showed an EC50 [1] of about 100 nM.
For `CCCCCCCCCCCCOc1ccc(NN=C(C#N)C#N)cc1` [C12-CCP], the “uncoupling activity (in words)” value [1] was “no activity; also recorded: low uncoupling activity”.
In the case of `N#CC(C#N)=NNc1ccc(OC(F)(F)F)cc1` [FCCP, carbonyl cyanide p-trifluoromethoxy-phenylhydrazone, reference compound], the “drug turnover in aqueous solution in the absence or presence of 0.2 mM GSH (in words)” value ([4]; 24 h, 37 °C, 100 mM KPO4) is given as “not metabolized significantly”, the “incubation time at which the O-dealkylated metabolite (loss of the trifluoromethyl group) was observed” value [4, 10] is given as 24 h and the “doses causing adverse effects” value [5] is given as at least 5 mg/kg. The doses causing death [5] was “higher than 20 mg/kg” and the “stability upon incubation with rat liver microsomes (in words)” value ([6]; presence and absence of NADPH, up to 45 min, 37 °C) was “stable”.
For `CCCCCCCCOc1ccc(NN=C(C#N)C#N)cc1` [NMY1009, (4-octyloxy-phenyl)carbonhydrazonoyl dicyanide], the “incubation time at which the dealkylated metabolite (loss of the octyl group) was observed” value [4, 10] was 30 min, the “time after which one third of the drug was turned over” value [4, 11] was “approximately 1 h” and the “time after which two thirds of the drug were turned over” value [4, 11] was 6 h. For the same compound, the “drug remaining at the end of the 24 h incubation” value ([4]; aqueous solution without GSH, 37 °C, 10 μM) was “about 18%”, the EC50 [1] was about 100 nM and the “tissue distribution (in words)” value [7] was “highest drug tissue concentrations were found in the different types of adipose tissue”. The half-life ([7]; mouse, adipose tissue, ip, read-out: half-life of adipose tissue drug concentrations (converted)) was about 180 min, the Tmax ([7]; mouse, plasma, ip, read-out: time of peak plasma concentration (converted)) was 30 min and the “deaths or adverse reactions (toxicity)” value [8] was “No deaths or adverse reactions were observed; also recorded: no toxicity”. The “Glucose Tolerance Test response vs vehicle” value [9] was “no altered Glucose Tolerance Test response”, the “blood glucose concentrations and other blood markers of metabolic health vs vehicle” value [9] was “no significant differences in blood glucose concentrations and other blood markers of metabolic health” and the “body composition (body weight and fat mass gains) vs vehicle” value [9] was “no changes in the body composition”. The “respiratory exchange ratio and energy expenditure vs vehicle” value [9] was “no differences the respiratory exchange ratio and energy expenditure”, the “serum adiponectin concentrations vs vehicle” value [9] was “decrease in serum adiponectin concentrations” and the half-life at 1 µM ([6]; rat, microsomes, pH 7.4) was about 30 min.
